{
  "source": "patent US12403142B2",
  "about": "“Combination therapy with a phosphoinositide 3-kinase inhibitor with a zinc binding moiety” (Curis, Inc., priority 2018, dated 2025)",
  "key": {"[1]": {"tested_on": "a variety of cancer cell lines", "assay": "Antiproliferative activity in vitro", "assay_type": "cell-based"}, "A20 syngeneic cells": {"tested_on": "A20 syngeneic cells", "assay": "Compound 1 and anti-PD-1 in the A20 mouse xenograft model", "assay_type": "in vivo", "source_text": "Animals: Female Balb/c Mice, 4-5 weeks old, fed a regular diet\nA20 syngeneic cells were collected from flasks and washed once in RPMI 1640 with no additives. […] Animals were implanted with 2×10^5 cells in the right flank. Dosing commenced when tumors were greater than 100 mm^3 (around day 13) and dosing continued for 21 days or until the tumors reached the limit of 2000 mm^3.\nAnimals started dosing around day 13 when tumors are fully palpable and measured. Dosing continued until tumors begin to show ulceration that requires sacrifice. Tumors were collected before extensive necrosis to run ELISA and Flow analysis."}, "[2]": {"tested_on": "CT26.WT mouse colon carcinoma cells", "assay": "Compound 1 and anti-PD-1 in the mouse CT26.WT xenograft model", "assay_type": "in vivo", "method": "Animals: Female Balb/c Mice, 8 weeks old, fed a high fat diet\nCT26.WT cells were collected from flasks and washed once in RPMI 1640 with no additives. […] Mice were grouped once tumors were palpable on day 7 or day 8 and randomized by body weight. Treatment started with antibody and Compound 1 was begun immediately.\nAnimals were monitored until the dosing commenced and then were measured twice a week during dosing until tumor volume reached protocol limit or ulceration was too severe. Tumor tissue and blood/plasma were collected at the end of the study."}, "tumor tissue": {"tested_on": "tumor tissue", "assay": "Tumor uptake and pharmacodynamics in xenograft tumor bearing mice", "assay_type": "in vivo, mouse", "conditions": "oral or intravenous dosing"}, "[3]": {"tested_on": "HDACs (HeLa cell nuclear extracts)", "assay": "HDAC activity assay, Biomol Color de Lys system", "assay_type": "biochemical", "conditions": "25° C. for 1 hour", "method": "HDAC inhibitory activity was assessed using the Biomol Color de Lys system (AK-500, Biomol, Plymouth Meeting, PA). Briefly, HeLa cell nuclear extracts were used as a source of HDACs. Different concentrations of test compounds were serially diluted in dimethylsulfoxide (DMSO) and added to HeLa cell nuclear extracts in the presence of a colorimetric artificial substrate. Final assay condition contained 50 mM Tris/C1, pH 8.0, 137 mM NaCl, 2.7 mM KCl and 1 mM MgCl2. Reactions were carried in room temperature (25° C.) for 1 hour before addition of developer for termination. Relative enzyme activity was measured in the WALLAC Victor II 1420 microplate reader as fluorescence intensity (excitation: 350-380 nm; emission: 440-460 nm). Data were analyzed using GraphPad Prism (v4.0a) with a sigmoidal dose response curve fitting for IC50 calculation."}, "[4]": {"tested_on": "mouse xenograft tumor models", "assay": "Antitumor activity in mouse xenograft tumor models", "assay_type": "in vivo", "conditions": "oral or intravenous administration"}, "[5]": {"assay": "Genotoxicity testing using the Ames test"}, "[6]": {"assay": "Oral bioavailability in animal models", "assay_type": "in vivo"}},
  "data": [
    {"smiles": "COc1ccc(-c2nc(N3CCOCC3)c3sc(CN(C)c4ncc(C(=O)NO)cn4)cc3n2)cn1", "note": "[Compound 1, N-Hydroxy-2-(((2-(6-methoxypyridin-3-yl)-4-morpholinothieno[3,2-d]pyrimidin-6-yl)methyl)(methyl)amino)pyrimidine-5-carboxamide]", "values": [
      {"measurement": "antiproliferative activity", "setting": "[1]", "result": "potent antiproliferative activity"},
      {"measurement": "TGI %* (Day 13)", "setting": "A20 syngeneic cells; A20, female Balb/c mice, Day 13, relative to Vehicle (Cmp 1) + isotype group, Cpd 1 100 mg/kg PO 5+2−, mAb 100 μg BIW", "result": 60, "unit": "%"},
      {"measurement": "tumor growth inhibition", "setting": "A20 syngeneic cells; A20 model, Compound 1 100 mg/kg, anti-PD-1 100 ug/mouse", "result": "significant tumor growth inhibition"},
      {"measurement": "inhibition of tumor growth", "setting": "[2]; CT26.WT model, Compound 1 50 mg/kg, anti-PD-1 100 ug/mouse", "result": "only small inhibition of tumor growth"},
      {"measurement": "TGI %* (Day 15)", "setting": "[2]; CT26.WT, female Balb/c mice, Day 15, relative to Vehicle (Cmp 1) group, Cpd 1 50 mg/kg PO 5+2−, mAb 100 μg IP BIW", "result": 3, "unit": "%"},
      {"measurement": "pharmacodynamic activity in tumor tissue", "setting": "tumor tissue", "result": "pharmacodynamic activity in tumor tissue"},
      {"measurement": "uptake by the tumor tissue", "setting": "tumor tissue", "result": "significant uptake by the tumor tissue"},
      {"measurement": "IC50", "setting": "[3]", "result": "< 0.1", "unit": "µM"},
      {"measurement": "antitumor activity", "setting": "[4]", "result": "substantial antitumor activity"},
      {"measurement": "safety profile (genotoxicity, Ames test)", "setting": "[5]", "result": "favorable safety profile"},
      {"measurement": "oral bioavailability", "setting": "[6]", "result": "significant oral bioavailability"}
    ]}
  ]
}
